{
  "source": "patent US20160206631A1",
  "about": "“OXYSTEROLS THAT ACTIVATE LIVER X RECEPTOR SIGNALING AND INHIBIT HEDGEHOG SIGNALING” (THE REGENTS OF THE UNIVERSITY OF CALIFORNIA, priority 2010, published 2016)",
  "key": {"[1]": {"system": "C3H10T1/2 embryonic fibroblasts", "test": "CAPAN-1 conditioned-medium-induced alkaline phosphatase activity in C3H10T1/2 cells", "type": "cell-based", "conditions": "C3H10T1/2, 3 days; TO 2 μM, Oxy16 5 μM, Cyc 4 μM (FIG. 11)", "method": "Next, cells were treated with DMEM containing 5% FBS or CAPAN-1 CM in the presence or absence of TO, Oxy16, or Cyc. After 3 days, alkaline phosphatase activity assay using whole cell lysates was performed.\n(§1) In order to assess the functional activity of Hh proteins produced by CAPAN-1 cells, we examined the ability of CM to induce Hh target gene expression in C3H10T1/2 embryonic fibroblasts."}, "Hedgehog signaling": {"system": "Hedgehog signaling", "test": "CAPAN-1 conditioned-medium-induced Hh target gene expression (Ptch1, HHIP, Gli1) in C3H10T1/2 cells", "type": "cell-based", "conditions": "C3H10T1/2, 48 hours; TO 2 μM, Oxy16 5 μM, Cyc 4 μM (FIG. 10)", "method": "Next, cells were treated with DMEM containing 5% […] or CAPAN-1 CM in the presence or absence of TO, Oxy16, or Cyc. After 48 hours, RNA was extracted and analyzed by Q-RT-PCR for the expression of Hh target genes Ptch1, HHIP, and Gli1 and normalized to GAPDH expression.\nAs noted above, Hh signaling appears to play an important role in the initiation and progression of pancreatic cancer (26), and the inhibition of HE signaling using small molecule antagonists inhibits pancreatic cancer cells from growing in vitro and in vivo (50). […] Subsequently, Hh signaling in stromal cells provides a permissive milieu for tumor cells to grow. […] In this Example, we examine this possibility using an in vitro model system in which Hh signaling is induced in C3H10T1/2 embryonic fibroblasts by conditioned-medium (CM) from CAPAN-1 human pancreatic cancer cells.\nas §1"}, "[2]": {"system": "Hedgehog signaling pathway", "test": "Ptch1 mRNA expression (Hh target gene) by Q-RT-PCR in Saos-2 cells", "type": "cell-based, human", "conditions": "Saos-2, 2% FBS, 72 hours; 2 or 4 τM TO, 4 μM cyclopamine (FIG. 5)", "method": "Saos-2 cells were cultured in medium containing 2% FBS and were treated at confluence with 4 μM Cyc, 2 or 4 τM TO, alone or in combination for 72 hours. Expression of Ptch1 and Gli1 (data not shown) mRNA was measured by Q-RT-PCR and normalized to GAPDH."}, "[3]": {"system": "CAPAN-1 human pancreatic cancer cells", "test": "Ihh and Shh mRNA expression in CAPAN-1 cells", "type": "cell-based", "conditions": "cyclopamine 4 μM, TO 2-5 μM, data not shown", "method": "Expression of Shh and Ihh mRNA in human cultures of pancreatic cancer cells, CAPAN-1, L3.6p1, and E3LZ10.7 were analyzed by Q-RT-PCR and normalized to GAPDH expression. Cells were cultured in DMEM containing 10% FBS and RNA was extracted 3 days after seeding. Data from a representative experiment are reported as the mean of triplicate determinations±SD (p<0.001 for CAPAN-1 vs. other two cell types for Shh and 11 h mRNA expression).\nCulturing CAPAN-1 cells in 1% vs. 10% FBS had no effects on their level of mRNA expression for 11th and Shh (data not shown), and treatment of CAPAN-1 cells with the Hh pathway inhibitor cyclopamine (4 μM) or the LXR agonist TO (2-5 μM) had no effect on the expression of Ihh or Shh mRNA in these cells (data not shown)."}},
  "data": [
    {"compound": "CC1=C2C[C@H]3[C@@H](CC=C4C[C@@H](O)CC[C@@]43C)[C@@H]2CC[C@]12O[C@@H]1C[C@H](C)CN[C@H]1[C@H]2C", "note": "[cyclopamine]", "values": [
      {"measurement": "CAPAN-1 CM-induced ALP activity", "setting": "[1]", "value": "inhibited"},
      {"measurement": "CAPAN-1 CM-induced expression of Hh target genes Ptch1, Gli1, HHIP", "setting": "Hedgehog signaling", "value": "completely inhibited"},
      {"measurement": "Ptch1 mRNA expression", "setting": "[2]", "value": "significant inhibition"},
      {"measurement": "expression of Ihh or Shh mRNA", "setting": "[3]", "value": "no effect"}
    ]}
  ]
}
